Results published in publication PMC6240894 (2018).

Experiments:
[1] = system: VAV-1 (DNA, G4) GGGCAGGGAGGGAACTGGG; assay: UV/Vis and fluorescence titration, averaged; conditions: K+ 100 mM; 10 mM Tris, pH 7.4, 25 °C
[2] = system: c-myc (DNA, G4) TGAGGGTGGGTAGGGTGGGTAA; assay: UV/Vis and fluorescence titration, averaged; conditions: K+ 100 mM; 10 mM Tris, pH 7.4, 25 °C
[3] = system: sG4 (DNA, G4) GGGTGGGTAGGGTGGG; assay: UV/Vis and fluorescence titration, averaged; conditions: K+ 100 mM; 10 mM Tris, pH 7.4, 25 °C
[4] = system: 22AG (DNA, G4) AGGGTTAGGGTTAGGGTTAGGG; assay: fluorescence and UV/Vis titration; conditions: K+ 100 mM; 10 mM Tris, pH 7.4, 25 °C; lower optical response
[5] = system: Kras 32 (DNA, G4) AGGGCGGTGTGGGAAGAGGGAAGAGGGGGAGG; assay: UV/Vis and fluorescence titration, averaged; conditions: K+ 100 mM; 10 mM Tris, pH 7.4, 25 °C; site 1 of 2; K12 4.1 × 10^5; 1:2 fit of lower credibility
[6] = system: Kras 22 (DNA, G4) AGGGCGGTGTGGGAATAGGGAA; assay: UV/Vis and fluorescence titration, averaged; conditions: K+ 100 mM; 10 mM Tris, pH 7.4, 25 °C; site 1 of 2; K12 1.7 × 10^6; 1:2 fit of lower credibility
[7] = system: 25Ceb (DNA, G4) AGGGTGGGTGTAAGTGTGGGTGGGT; assay: UV/Vis and fluorescence titration, averaged; conditions: K+ 100 mM; 10 mM Tris, pH 7.4, 25 °C

- K11 [1]: 1.2e+07 M⁻¹
- K11 [2]: 1e+07 M⁻¹
- K11 [3]: 8.1e+06 M⁻¹
- binding [4]: weak
- K11 [5]: 5.9e+06 M⁻¹
- K11 [6]: 1.5e+07 M⁻¹
- K11 [7]: 900000 M⁻¹
SMILES: COCCOCCOCCOc1cc(CN2C(=CC3=C([O-])C(=Cc4sc5ccccc5[n+]4Cc4cc(OCCOCCOCCOC)c(OCCOCCOCCOC)c(OCCOCCOCCOC)c4)C3=C(C#N)C#N)Sc3ccccc32)cc(OCCOCCOCCOC)c1OCCOCCOCCOC
